pEC50, pIC50, pKd: −log10 of the molar value. Entries after “also recorded” stand apart in the source; their conditions may differ.

The term pKd denotes the Kd on a negative log10 scale, so that one unit is a factor of ten. One may read the pIC50 as the negative decadic logarithm of the IC50, by convention in mol/L. The pEC50 is the negative decadic logarithm of the EC50, by convention in mol/L.

Experiment [1] relates to TAR RNA. Put plainly: Gel-shift binding to TAR RNA. The arrangement: species or system HIV-1. Conditions: for pKd: CD50 normalized to the reported conditions (Calnan et al., 1991 b), read-out: apparent Kd; for effect of ten-fold excess of yeast tRNA on complex formation with TAR: ten-fold excess of tRNA (100 ng per lane). As for the experimental part:
The model Tat peptide (R52: […]) was prepared by the Weizmann Institute Chemical Services and was purified by reverse phase HPLC (C-18) (Lapidot et al., 1995). […] The RNA was transcriptionally labeled with α-^32P UTP, purified on a 12% polyacrylamide/7M urea gel (19:1 acrylamide:bis-acrylamide) and was eluted from the gel by 0.5M ammonium acetate, 10 mM magnesium acetate, 1 mM EDTA and 0.1% SDS. The sample was subjected to phenol extraction and the RNA was precipitated from 70% ethanol. Purified RNA was dissolved in diethyl pyrocarbonate-treated water (DEPC water), its concentration was determined by UV absorption at 260 nm and the specific radioactivity was determined by scintillation counting on a LS 1701 “Bruker” counter.
To study the affinity of the test compounds to TAR, gel-shift and gel-shift inhibition experiments were performed. The binding reaction mixtures (20 μl) contained ^32P-labeled TAR (18-44) RNA oligonucleotide (3-6 nM) and Tat R52 peptide (35-75 nM) in a binding buffer (10 mM Tris-HCl pH 7.5, 70 mM NaCl, 0.2 mM EDTA and 5% glycerol). The reaction mixtures were incubated for 10 minutes on ice and resolved by electrophoresis on a 10% non-denaturing polyacrylamide gel (40:1 acrylamide:bis-acrylamide) at 200V, for 3 h at 4° C. Gels were dried and visualized by autoradiography. Quantitations were obtained by optical densitometry of films. Alternatively, results were visualized by exposing the wet gels to Fuji phosphoimager plates, which were read on a “Storm 820” (Molecular Dynamics) phosphoimager. […]
Binding of aminoglycoside-arginine conjugates (AAC) to TAR RNA was measured by adding varying concentrations of each conjugate to reaction mixtures (20 μl) which contained 12 nM ^32P-labeled TAR RNA. The reactions were analyzed as described above.

For experiment [2], the target named is T1, CXCR4 (Homo sapiens, UniProt P61073). Kind of experiment: Inhibition of anti-CXCR4 mAb (12G5) binding, flow cytometry, PHA-activated PBMC. Also on record: endogenous in cells. The note with it: for pIC50: read-out: IC50-12G5 PMBC. Here is the method: (§1) Measurement of chemokine receptors CXCR4, CCR5 and the CD4 receptor on phytohemagglutinin (PHA)-activated PBMC was performed by flow cytometry analysis. Briefly, 0.5×10^6 cells were washed in ice-cold phosphate-buffered saline (PBS) and incubated for 30 minutes at 4÷C. with fluorescent labelled mAb 12G5 and 2D7 and Leu3a (Becton Dickinson, San Jose, Calif.) or with isotype control mAbs in the presence or absence of the test compound. Then, the cells were washed with ice-cold PBS and were fixed in PBS containing 1% formaldehyde. For each sample, 10,000 events were analysed in a FACScalibur™ system (Becton Dickinson). Data were acquired and analysed with CellQuest™ software (Becton Dickinson).
A general note: In flow cytometry, cells or beads pass a laser one at a time.

The test system of experiment [3] is R5 strain Ba-L. Put plainly: Virus-binding assay, MT-4 cells. Format: cell-based, HIV-1. Conditions: dose dependent; data not shown. Here is the method:
(§2) MT4 cells (5×10^5) were incubated with supernatant containing 1×10^5 pg of p24 antigen of wild type HIV-1 in the presence of different concentrations of the test compound. One hour after infection, cells were washed 3 times with PBS and p24 antigen bound to the cells was determined by a commercial ELISA test (Coulter, Spain).

Experiment [4] deals with T1, CXCR4. Put plainly: Inhibition of anti-CXCR4 mAb (12G5) binding, flow cytometry, SUP-T1 cells. Also on record: endogenous in cells. The note with it: for affinity for CXCR4: inhibition of 12G5 binding to SUP-T1 cells or PMBC. As for the experimental part: as §1
Experiment [5] deals with HIV-1 NL4-3 AMD3100-resistant. Format: cell-based. Conditions: for cross-resistance of NL4-3 AMD3100-resistant virus: relative to NL4-3.
Method: The cells were infected by incubation with different titers of the HIV-1 strains for 2 hrs at 37° C. in the presence or absence of the AAC of the invention. Then the cells were washed from the virus by centrifugation at 400 g and the supernatants were discarded. The cells were resuspended in culture medium, supplemented with different concentrations of the test compounds. The cells were allowed to proliferate for 5 days, the number of viable cells was quantified by a tetrazolium-based colorimetric method (CellTiter 96® AQueous One solution Cell Proliferation Assay, Promega).
In experiment [6] the target is T1, CXCR4. Conditions: SDF-1α 20 ng/ml.
Experiment [7] relates to TAR RNA. Kind of experiment: RNase A footprinting of TAR RNA. Conditions: 1 μM TAR, 200 pM RNase A. Format: binding, HIV-1. As for the experimental part: In a typical experiment 10 μl of 5 mM cacodylate buffer pH 6.5, containing 25 mM KCl and 50-100 ng 5′ ^32P-labeled TAR RNA (approximately 0.5-1 μM) were incubated with 200 pM RNase A (Sigma) at room temperature for 10 minutes in the presence of Tat R52 and the conjugates of the invention at various concentrations. In the competition experiments, the mixture was supplemented with 0.5 μg yeast tRNA (Sigma). After the incubation, 10 μl of formamide/bromphenol blue loading buffer was added to the samples. The samples were heated to 80° C. for 2 min and were resolved by electrophoresis on 40 cm×0.8 mm 20% polyacrylamide denaturing gel (7M urea) for 3 hours at 55° C. The results were visualized by a phosphoimager as described above and quantitated using ImageQuant software.
TAR RNA and RNase A concentrations were established by co-titration. To produce a “single-hit” kinetics conditions, 1 μM TAR versus 200 pM RNase A were selected. Tat R52 and AAC concentrations were determined by titration. […] RNase A cleaved TAR RNA in an uneven manner (FIG. 4A., lane 2). The most susceptible regions for cleavage were the single-stranded loop, nucleotides U31-G34 as well as C24 and U25 of the bulge. Strong cleavage was also observed at G21-G41 and A20-U42 pairs (lower stem). Binding of R52 (2-4 μM) caused a weakening of the bands in the upper stem region, (G26-C39, A27-C38, as well as U40) (FIG. 4A., lanes 3, 4). At 4 μM R52, the cleavage at G34 (loop) was enhanced, as well as a certain enhancement of bands A20, G21, U23 and U25 was observed. Remarkably, the band corresponding to the R52-TAR complex still was observed on the gels even after electrophoresis under strongly denaturing conditions. In the presence of R4K (10-20 μM), the upper stem (G26-C29), the lower stem and the bulge (G21-U23, partially C24 and U25) were protected as well as C38, C39 and U40. Cleavage at C19 and A20 of the lower stem and C30, G33 and G34 of the loop was enhanced by 10 μM R4K, whereas with 20 μM R4K the protection of C30, G34 and A20-G21 was observed (FIG. 4A., lanes 5, 6). […] Cleavages at C19-A20 in the lower stem as well as at G30 and G34 in the loop were observed (FIG. 4A., lanes 7, 8). In the presence of GB4K (20 μM) no significant protection was observed.

The subject of experiment [8] is rG15, rG15-rC15 duplex and truncated TAR RNA sequences. Put plainly: Gel-shift binding to short RNA oligonucleotides (specificity). The note with it: micromolar concentration range; data not shown.
Experiment [9] deals with HIV-1 NL4-3. Kind of experiment: Virus-binding assay, p24 antigen bound to MT-4 cells. Format: cell-based. Conditions: 1 hour at 37° C.; dose dependent. Here is the method: as §2

T1 sequence (P61073 whole entry): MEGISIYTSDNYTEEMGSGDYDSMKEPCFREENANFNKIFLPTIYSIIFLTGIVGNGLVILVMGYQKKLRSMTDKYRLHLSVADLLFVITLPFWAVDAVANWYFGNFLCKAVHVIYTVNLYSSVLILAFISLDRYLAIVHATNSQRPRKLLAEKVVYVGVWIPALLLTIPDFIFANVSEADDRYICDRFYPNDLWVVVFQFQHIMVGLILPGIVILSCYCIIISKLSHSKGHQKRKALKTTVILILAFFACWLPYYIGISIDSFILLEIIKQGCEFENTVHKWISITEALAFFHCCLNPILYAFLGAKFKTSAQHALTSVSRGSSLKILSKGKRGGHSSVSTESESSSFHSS

For the compound `N=C(N)NCCCC(N)C(=O)NCC1OC(OC2C(NC(=O)C(N)CCCNC(=N)N)CC(NC(=O)C(N)CCCNC(=N)N)C(OC3OC(CO)C(O)C(NC(=O)C(N)CCCNC(=N)N)C3O)C2O)C(O)C(O)C1O` (stereo not drawn) [R4K, Tetraargininamido-kanamycin A conjugate], in experiment [1] (12 nM 32P-labeled TAR), the CD50 is 2500 nM. The CD50 in [1] (50% binding, TAR RNA 12 nM) was found to be 2500 nM. Besides, in experiment [1], the pKd was 6.38 and the “effect of ten-fold excess of yeast tRNA on complex formation with TAR” value is given as “do not inhibit the binding”. For the same compound, the pIC50 in experiment [2] is 5.66. Besides, the “binding of the R5 strain Ba-L to MT-4 cells” value in experiment [3] is “inhibited the binding”. Further, in [4], the pIC50 is 5.43 and the “affinity for CXCR4” value is on record as “high affinity”. Besides, the “cross-resistance of NL4-3 AMD3100-resistant virus” value in experiment [5] is recorded as > 4 fold. For the same compound, the “SDF-1α-dependent Ca2+ signal” value in [6] was “inhibited; also recorded: blocked”. Besides, the “concentration giving effective protection of TAR” value in [7] came out at 10 µM. For the same compound, the “binding to short RNA oligonucleotides” value in [8] is on record as “did not display any binding”. Besides, the “binding of HIV-1 NL4-3 to MT-4 cells” value in [9] is “inhibit the binding”.
In the case of “Triargininamido-gentamicin conjugate [R3G]”, in [1] (50% binding, TAR RNA 12 nM), the CD50 is recorded as ~500 nM. Also, in [1], the pKd is 7.08 and the “effect of ten-fold excess of yeast tRNA on complex formation with TAR” value is recorded as “do not inhibit the binding”. The “binding of 12G5 mAb to PHA-activated PBMC” value in experiment [2] (5 μM) was “suppressed”. Further, the pIC50 in [2] is 5.57. The “binding of the R5 strain Ba-L to MT-4 cells” value in experiment [3] is “inhibited the binding”. In [4], the pIC50 is 5.11 and the “affinity for CXCR4” value was “high affinity”. Also, the pEC50 in [5] (MTT assay, read-out: EC50 HIV-1 AMD 3100res) was < 3.88. The “cross-resistance of NL4-3 AMD3100-resistant virus” value in [5] is listed as > 9 fold. Also, the “SDF-1α-dependent Ca2+ signal” value in experiment [6] is “inhibited; also recorded: blocked”. Besides, the “concentration giving effective protection of TAR” value in [7] came to 4 µM. Further, in experiment [8], the “binding to short RNA oligonucleotides” value is on record as “did not display any binding”. In experiment [9], the “binding of HIV-1 NL4-3 to MT-4 cells” value is “inhibit the binding”.
